Measurements reported in US20070142302A1, “PEPTIDYL PRODRUGS THAT RESIST P-GLYCOPROTEIN MEDIATED DRUG EFFLUX” (The Curators of the University of Missouri, priority 2004, published 2007).
“Also recorded” adds a separate entry of the source. Square brackets hold non-standard residues; d marks the D form. Peptide text beside a SMILES is read from it. Sar = CNCC(=O)O

Columns and labels:
[1] = tested on: peptide transporter; assay: Uptake of [^3H]Gly-Sar by MDCKII-MDR1 cells in the presence of drug/derivative; assay type: cell-based, dog; conditions: for Uptake of [^3H]Gly-Sar: control 0.033; for Inhibition of [^3H]Gly-Sar uptake: MDCKII-MDR1 cells, quinidine and derivatives
Experimental: Studies were performed to investigate whether derivatives of quinidine are substrates for a nutrient peptide transport system.
Unlabeled Gly-Sar at concentrations of 1 and 2 mM reduced the uptake of [^3H]Gly-Sar from 0.033 to 0.026 pmol/(min mg) (20%) and 0.019 pmol/(min mg) (41%), respectively (FIG. 9).

[2] = tested on: MDCKII-MDR1 cell monolayers; assay: in vitro
Experimental: (§1) Confluency was assessed by light microscopy.
(§2) Transport studies were conducted with MDCKII-MDR1 cell monolayers grown on 12-well Transwell® inserts (12 mm diameter). The medium was aspirated, and cell monolayers were washed three times (10 minutes per wash) with DPBS (pH 7.4). Volumes of the apical and basolateral chambers were 0.5 and 1.5 ml, respectively. Transport experiments were conducted for a period of 3 hours. Aliquots (200 μl) were withdrawn at predetermined time intervals, i.e., 15, 30, 45, 60, 90, 120, 150, and 180 minutes and replaced with fresh DPBS (pH 7.4) to maintain sink conditions. Samples were stored at −80° C. until further analysis. Experiments designed to investigate the effect of inhibitors involved preincubation of the cells with the inhibitor for a period of 30 minutes (inhibitor solution was added to both donor and receiver chambers) prior to the addition of the drug solution (also containing the inhibitor) to initiate the transport study. All transport experiments were performed at 37° C.
(§3) The HPLC system comprised an HP 1050 pump, an Agilent 1100 series fluorescence detector, and an Alcott autosampler (model 718 HPLC). A C(8) Luna column (250 mm×4.6 mm); Phenomenex, Torrance, Calif.) was employed in the analysis. The mobile phase consisted of 20 mM phosphate buffer (pH adjusted to 2.5) and 12% acetonitrile as the organic modifier. The parent drug and the derivative were detected with a fluorescence detector (λex=240 nm, λem=450 nm).
(§4) Linear regression analysis of the amounts transported as a function of time yielded the rate of transport across the cell monolayer (dM/dt). The rate divided by the cross-sectional are available for transport (A) generated the steady-state flux as shown in Equation 1. flux=(dM/dt)/A (Equation 1) Permeability was calculated by normalizing the steady-state flux to the donor concentration (Cd) of the drug according to Equation 2. Permeability=flux/Cd (Equation 2)
(§5) Transport studies with MDCKII-MDR1 cell monolayers were carried out as described in Example 7. […] Detection issues of the prodrug and/or parent drug in the acceptor chamber was considered for the selection of prodrug concentration. Aliquots (200 μL) were withdrawn at predetermined time intervals, i.e., 15, 30, 45, 60, 90, 120, 150, 180 min, respectively, and replaced with fresh DPBS, pH 7.4, to maintain sink conditions. Dilutions were taken into account for the calculations. Samples were stored at −80° C. until further analysis. All transport experiments were performed at 37° C.
(§6) The HPLC system was comprised of HP 1050 pump, Waters dual wavelength absorbance UV detector, and an Alcott auto sampler (model 718AL HPLC). A C(8) Luna column (250 mm×4.6 mm; Phenomenex, Torrance, Calif.) was employed for the separation of analytes. Mobile phase composed of acetonitrile:water:triethylamine (55:44:1%, v/v/v) and the pH was adjusted to 6.5 with o-phosphoric acid. Flow rate was maintained at 0.8 mL/min and detection wavelength was set at 240 nm.
(§7) Intact prodrug transported and breakdown products, formed during the transport study, were analyzed. Cumulative amount of drug transported (the sum of prodrug and regenerated parent drug) was plotted as a function of time. Apparent permeabilities (Papp) were determined from the linear portion of the cumulative amount versus time plot.

[3] = molecular target: P-gp (Homo sapiens, UniProt P08183); conditions: MDCKII-MDR1 cells
P-gp (Homo sapiens, UniProt P08183), sequence (P08183 whole entry): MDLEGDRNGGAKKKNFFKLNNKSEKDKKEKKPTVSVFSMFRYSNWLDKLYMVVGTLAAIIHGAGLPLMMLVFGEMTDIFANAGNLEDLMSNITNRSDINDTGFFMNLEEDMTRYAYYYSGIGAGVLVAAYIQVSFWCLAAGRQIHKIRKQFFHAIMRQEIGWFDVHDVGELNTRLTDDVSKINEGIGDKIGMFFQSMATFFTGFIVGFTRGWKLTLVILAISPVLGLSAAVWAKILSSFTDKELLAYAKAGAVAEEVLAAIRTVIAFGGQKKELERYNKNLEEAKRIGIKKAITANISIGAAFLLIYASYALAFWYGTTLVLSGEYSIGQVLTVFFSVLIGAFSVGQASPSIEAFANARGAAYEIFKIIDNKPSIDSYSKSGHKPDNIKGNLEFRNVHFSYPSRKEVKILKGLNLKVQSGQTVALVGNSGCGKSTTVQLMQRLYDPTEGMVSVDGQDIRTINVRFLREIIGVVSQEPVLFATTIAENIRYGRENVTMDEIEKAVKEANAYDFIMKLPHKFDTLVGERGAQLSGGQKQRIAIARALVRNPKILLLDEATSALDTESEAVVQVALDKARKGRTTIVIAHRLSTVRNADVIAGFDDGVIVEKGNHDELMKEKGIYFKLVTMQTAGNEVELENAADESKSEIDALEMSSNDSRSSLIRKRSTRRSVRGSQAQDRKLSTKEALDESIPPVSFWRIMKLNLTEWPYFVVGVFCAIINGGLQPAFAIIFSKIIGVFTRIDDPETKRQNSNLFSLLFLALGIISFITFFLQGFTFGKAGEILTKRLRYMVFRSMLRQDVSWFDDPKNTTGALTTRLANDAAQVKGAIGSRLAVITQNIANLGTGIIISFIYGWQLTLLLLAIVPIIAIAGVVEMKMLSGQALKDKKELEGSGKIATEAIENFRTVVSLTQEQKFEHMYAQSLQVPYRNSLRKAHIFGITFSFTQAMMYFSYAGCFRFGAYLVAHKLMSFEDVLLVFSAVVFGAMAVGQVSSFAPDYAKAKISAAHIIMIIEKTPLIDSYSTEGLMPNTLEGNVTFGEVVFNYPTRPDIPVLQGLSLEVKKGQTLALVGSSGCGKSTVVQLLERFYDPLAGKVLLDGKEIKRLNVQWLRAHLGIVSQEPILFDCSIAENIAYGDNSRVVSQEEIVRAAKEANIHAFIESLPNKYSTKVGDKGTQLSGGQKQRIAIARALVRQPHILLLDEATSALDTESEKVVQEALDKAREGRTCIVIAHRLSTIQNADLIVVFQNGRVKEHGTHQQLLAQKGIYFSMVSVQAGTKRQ
Source text: Two different concentrations were employed to examine the effect of prodrug concentration on P-gp inhibition.

[4] = tested on: MDCKII-MDR1 cell homogenates; conditions: dog
Experimental: Confluent MDCKII-MDR1 cells were washed three times with Dulbecco's phosphate buffered saline (DPBS) (130 mM NaCl, 7.5 mM Na2HPO4, 1.5 mM KH2PO4, 0.5 mM MgSO4, 1 mM CaCl2, […] and 5 mM glucose). Cells were then isolated with the aid of a mechanical scrapper and suspended in two volumes of water and homogenized (Multipro variable speed homogenizer, DREMEL; Racine, Wis.). Suitable dilutions were made to achieve a final protein concentration of 0.25 mg/mL. Protein content was determined according to the method of Bradford (Bradford, Anal. Biochem., 72, 248 (1976)) with BioRad protein estimation kit.
An aliquot (800 μL) of the cell homogenate was incubated with 200 μL (30 μg/mL) prodrug solution at 37° C. in a shaking water bath (60 rpm). One hundred microlitres samples were withdrawn at predetermined time points and an equal volume of ice-cold acetonitrile:methanol (5:4) mixture was added to stop the enzymatic reaction. Samples were stored at −80° C. until further analysis.

[5] = buffer
Experimental: Stability in DPBS was determined by incubating 200 μL prodrug solution with 800 μL DPBS with pH adjusted to 5 and 7.4. Slope of the line of “log percentage prodrug remaining versus time” plot was employed to calculate the degradation rate constants.

[6] = tested on: peptide transporter; assay: Uptake of [^3H]Gly-Sar by MDCKII-MDR1 cells in the presence of drug/derivative; assay type: cell-based, dog; conditions: for Effect on [^3H]Gly-Sar uptake: 100 μM SQV or prodrug; for Reduction of [^3H]Gly-Sar uptake: 100 μM prodrug; for Concentration dependence of inhibition of [^3H]Gly-Sar uptake: SQV prodrugs, different concentrations up to 100 μM
[7] = in vitro; conditions: dog, MDCK-MDR1
Experimental: as §1, §2, §3, §4, §5, §6, §7

[8] = molecular target: P-gp (Oryctolagus cuniculus, UniProt Q6UUW3); conditions: rPCEC cells, equimolar concentrations
P-gp (Oryctolagus cuniculus, UniProt Q6UUW3), sequence (Q6UUW3 1-1279): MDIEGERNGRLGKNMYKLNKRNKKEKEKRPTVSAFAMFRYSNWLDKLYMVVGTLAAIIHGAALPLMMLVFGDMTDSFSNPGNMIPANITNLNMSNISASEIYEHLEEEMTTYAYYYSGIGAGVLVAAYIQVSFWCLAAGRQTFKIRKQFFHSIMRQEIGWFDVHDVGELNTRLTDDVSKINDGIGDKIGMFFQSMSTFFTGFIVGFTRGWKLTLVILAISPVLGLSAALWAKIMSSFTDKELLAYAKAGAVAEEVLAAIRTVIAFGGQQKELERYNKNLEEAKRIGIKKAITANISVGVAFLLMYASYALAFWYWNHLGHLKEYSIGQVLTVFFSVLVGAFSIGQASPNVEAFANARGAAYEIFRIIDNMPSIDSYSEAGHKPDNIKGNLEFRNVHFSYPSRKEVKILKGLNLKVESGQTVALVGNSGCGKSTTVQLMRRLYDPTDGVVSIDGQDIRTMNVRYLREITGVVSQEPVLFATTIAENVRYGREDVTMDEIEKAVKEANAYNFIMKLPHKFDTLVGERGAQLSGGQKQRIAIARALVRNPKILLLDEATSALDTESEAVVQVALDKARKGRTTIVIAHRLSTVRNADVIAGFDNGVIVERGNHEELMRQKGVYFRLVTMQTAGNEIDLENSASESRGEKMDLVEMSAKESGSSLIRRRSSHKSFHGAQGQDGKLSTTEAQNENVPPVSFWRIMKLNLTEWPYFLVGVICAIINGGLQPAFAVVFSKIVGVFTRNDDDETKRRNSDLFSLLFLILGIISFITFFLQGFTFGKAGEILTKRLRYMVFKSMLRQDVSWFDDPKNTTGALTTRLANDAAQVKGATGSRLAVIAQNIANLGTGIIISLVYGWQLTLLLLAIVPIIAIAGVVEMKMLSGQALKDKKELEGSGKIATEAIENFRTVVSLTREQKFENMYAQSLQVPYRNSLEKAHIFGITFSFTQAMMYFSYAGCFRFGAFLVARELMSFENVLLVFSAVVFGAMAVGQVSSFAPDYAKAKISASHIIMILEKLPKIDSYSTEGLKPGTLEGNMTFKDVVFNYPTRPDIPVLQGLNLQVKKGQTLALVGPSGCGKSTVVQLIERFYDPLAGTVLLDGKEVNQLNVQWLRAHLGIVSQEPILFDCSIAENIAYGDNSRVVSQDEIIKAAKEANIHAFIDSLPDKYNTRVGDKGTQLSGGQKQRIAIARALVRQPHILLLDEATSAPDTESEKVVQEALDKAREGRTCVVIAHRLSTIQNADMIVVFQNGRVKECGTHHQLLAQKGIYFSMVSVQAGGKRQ
Experimental: Adult male New Zealand albino rabbits weighing between 2-2.5 kg were obtained from Myrtle's rabbitry, Thompson Station, Tenn. Rabbit corneas were excised and washed thoroughly with DPBS, blotted dry, and transferred to sterile culture dishes containing 0.5 ml trypsin (0.25%) or 1.2 U/ml protease (Dispase II, Roche Molecular Biochemical). The corneas were placed upside down (with the concave surface touching the protease solution) and incubated at 37° C. for 30 minutes. The epithelial cells were stripped off with gentle scraping from peripheral areas (1-1.5 mm from the limbus) to the center. Care was taken to peel only the epithelial layer and not the underlying stromal layer, because that would contaminate the epithelial cells with keratinocytes. Cells were washed with MEM (Life Technologies, Grand Island, N.Y.) and placed in culture dishes. After 12 hours (when most of the cells had attached to the bottom), the MEM was removed and fresh MEM supplemented with insulin (5 μg/ml), transferrin (5 μg/ml), sodium selinite (5 μg/ml), amphotericin B (0.25 μg/ml), polymyxin B sulfate (0.5 μg/ml), penicillin (100 U/ml), streptomycin (100 μg/ml), human recombinant epidermal growth factor (10 ng/ml), and bovine pituitary extract (50 μg/ml) were added. The medium was changed twice a week, and the cells were subcultured every 7 to 10 days (subculture ratio, 1:5). […]

[9] = tested on: P-gp; conditions: rabbit, in vivo
Experimental: Adult male New Zealand albino rabbits weighing between 2-2.5 kg were obtained from Myrtle's rabbitry, Thompson Station, Tenn. Throughout an experiment, the animals were kept under anesthesia with ketamine HCl (35 mg/kg) and xylazine (3.5 mg/kg) given intramuscularly every hour. Pupils were dilated with two drops of 1% tropicamide prior to implantation of microdialysis probes. Linear probes were implanted in the anterior chamber using 25-gauge needles. They were inserted across the cornea just above the corneal scleral limbus so that they traversed through the center of the anterior chamber to the opposite end of the cornea, as evidenced by microscopic examination. The sample-collecting end of the linear probe was inserted carefully into the beveled edge end of the needle. The needle was retracted slowly, leaving the probe in the dialyzing membrane in the middle of the anterior chamber. The outlets of the probes were fixed to prevent any disturbances during sample collection. The probes were perfused with isotonic IPBS (pH 7.4) at a flow rate of 2 μl/min using a CMA/100 microinjection pump. After probe implantation, the animals were allowed to stabilize for 2 hours prior to the initiation of any study. […] Samples obtained in the study were analyzed by a scintillation counter (LS 6500, Beckman Instruments, Inc., Fullerton, Calif.).

[10] = tested on: P-gp (human MDR1); assay: in vitro; conditions: dog, MDCK-MDR1, pH 7.4
Experimental: as §1, §2, §3, §4, §5, §6, §7

CN(CC(=O)O)C(=O)CN [Gly-Sar, Glycyl-Sarcosine] (H-Gly-[Sar]-OH)
Reduction of [^3H]Gly-Sar uptake ([1]; 1 mM unlabeled Gly-Sar): 20% | Uptake of [^3H]Gly-Sar ([1]; 1 mM unlabeled Gly-Sar): 0.026 pmol/min/mg | Reduction of [^3H]Gly-Sar uptake ([1]; 2 mM unlabeled Gly-Sar): 41% | Uptake of [^3H]Gly-Sar ([1]; 2 mM unlabeled Gly-Sar): 0.019 pmol/min/mg | Concentration dependence of [^3H]Gly-Sar cellular accumulation ([1]; unlabeled Gly-Sar 1 mM and 2 mM): concentration dependent decrease; also recorded: concentration dependent reduction

C=CC1CN2CCC1CC2C(OC(=O)C(N)C(C)C)c1ccnc2ccc(OC)cc12 (centres unmarked) [Val-Q, Val-Quinidine]
Inhibition of [^3H]Gly-Sar uptake [1]: concentration dependent inhibition | Difference between AP-BL and BL-AP permeability ([2]; MDCK-MDR1): equivalent | Apparent permeability Papp AP-BL ([2]; MDCK-MDR1, pH 7.4): 5.13±0.49×10^−6 cm.s^−1 | Apparent permeability Papp BL-AP ([2]; MDCK-MDR1, pH 7.4): 6.17±1.28×10^−6 cm.s^−1

CC(C)[C@H](N)C(=O)N[C@H](C(=O)O[C@H](CN1C[C@H]2CCCC[C@H]2C[C@H]1C(=O)NC(C)(C)C)[C@H](Cc1ccccc1)NC(=O)[C@H](CC(N)=O)NC(=O)c1ccc2ccccc2n1)C(C)C [Val-Val-SQV, Val-Val-saquinavir]
Concentration at which the prodrug saturates P-gp [3]: 50 µM | Half-life (t1/2) in MDCK-MDR1 cell homogenates [4]: 6.6 ± 0.56 h | Efflux ratio (BL Papp/AP Papp) ([2]; MDCK-MDR1): 6 | Half-life (t1/2) in DPBS, pH 5 [5]: 94.8±21.4 h | Half-life (t1/2) in DPBS, pH 7.4 [5]: 18.3±1.4 h | Effect on [^3H]Gly-Sar uptake [6]: significantly decreased | Reduction of [^3H]Gly-Sar uptake [6]: 35% | Concentration dependence of inhibition of [^3H]Gly-Sar uptake [6]: concentration dependent inhibition

OC[C@@H](O)[C@@H](O)[C@H](O)[C@H](O)CO [[^14C]mannitol, mannitol, reference compound]
Papp [7]: < 0.2 ×10⁻⁶ cm/s | [^14C]mannitol transport across the cell monolayer ([2]; dog, MDCK-MDR1): < 0.5 %/h

CC(C)[C@H](NC(=O)CN)C(=O)O[C@H](CN1C[C@H]2CCCC[C@H]2C[C@H]1C(=O)NC(C)(C)C)[C@H](Cc1ccccc1)NC(=O)[C@H](CC(N)=O)NC(=O)c1ccc2ccccc2n1 [Gly-Val-SQV, Gly-Val-saquinavir]
Concentration at which the prodrug saturates P-gp [3]: 75 µM | Half-life (t1/2) in MDCK-MDR1 cell homogenates [4]: 1.75 ± 0.11 h | Efflux ratio (BL Papp/AP Papp) ([2]; MDCK-MDR1): 6 | Half-life (t1/2) in DPBS, pH 5 [5]: 34.5±0.85 h | Half-life (t1/2) in DPBS, pH 7.4 [5]: 13.1±0.33 h | Effect on [^3H]Gly-Sar uptake [6]: significantly decreased | Reduction of [^3H]Gly-Sar uptake [6]: 42% | Concentration dependence of inhibition of [^3H]Gly-Sar uptake [6]: concentration dependent inhibition

C=C[C@H]1C[N@@]2CC[C@H]1C[C@@H]2[C@@H](O)c1ccnc2ccc(OC)cc12 [quinidine, reference compound]
Inhibitory effect on P-gp mediated efflux ([^3H]erythromycin uptake) [8]: high inhibitory effect | Inhibition of the P-gp mediated efflux pump [9]: caused inhibition | Inhibition of [^3H]Gly-Sar uptake [1]: did not demonstrate any inhibition | Difference between AP-BL and BL-AP permeability ([2]; MDCK-MDR1): three fold difference | Papp A→B at 3 h, 10 μM [10]: 6.5 ×10⁻⁶ cm/s | Papp B→A at 3 h, 10 μM [10]: 18.3 ×10⁻⁶ cm/s

C=C[C@H]1CN2CC[C@H]1C[C@@H]2[C@@H](OC(=O)[C@@H](NC(=O)[C@@H](N)C(C)C)C(C)C)c1ccnc2ccc(OC)cc12 [Val-Val-Q, Val-Val-Quinidine]
Inhibition of [^3H]Gly-Sar uptake [1]: concentration dependent inhibition

CC(C)(C)NC(=O)[C@@H]1C[C@@H]2CCCC[C@@H]2CN1C[C@@H](O)[C@H](Cc1ccccc1)NC(=O)[C@H](CC(N)=O)NC(=O)c1ccc2ccccc2n1 [SQV, saquinavir, reference compound]
Effect on [^3H]Gly-Sar uptake [6]: did not demonstrate any significant inhibition
